Experimental data published in the NIST ThermoML archive (doi:10.1021/je800248w).
± gives the expanded uncertainty stated by the source.

Tests used:
[1] = molar heat capacity at constant pressure; xn = mol fraction of the nth substance listed; details: 101.3 kPa, Liquid, Small sample (50 mg) DSC
[2] = excess molar enthalpy (molar enthalpy of mixing); xn = mol fraction of the nth substance listed; details: 101 kPa, Liquid, Calvet calorimetry

CCOS(=O)(=O)[O-].CCn1cc[n+](C)c1 [1-ethyl-3-methylimidazolium ethyl sulfate] + O
Details	excess molar enthalpy [kcal/mol]	molar heat capacity at constant pressure [J/K/mol]
[1], 283.15 K, x2 = 0	–	365 ± 30
[1], 283.15 K, x2 = 0.212	–	294 ± 24
[1], 283.15 K, x2 = 0.4079	–	235 ± 19
[1], 283.15 K, x2 = 0.5925	–	179 ± 15
[1], 283.15 K, x2 = 0.766	–	142 ± 12
[1], 283.15 K, x2 = 0.8495	–	115 ± 9
[1], 283.15 K, x2 = 0.9282	–	95 ± 8
[1], 283.15 K, x2 = 0.9684	–	83 ± 7
[1], 283.15 K, x2 = 0.9916	–	78 ± 6
[1], 293.15 K, x2 = 0	–	371 ± 30
[1], 293.15 K, x2 = 0.212	–	297 ± 24
[1], 293.15 K, x2 = 0.4079	–	239 ± 19
[1], 293.15 K, x2 = 0.5925	–	184 ± 15
[1], 293.15 K, x2 = 0.766	–	145 ± 12
[1], 293.15 K, x2 = 0.8495	–	118 ± 10
[1], 293.15 K, x2 = 0.9282	–	96 ± 8
[1], 293.15 K, x2 = 0.9684	–	85 ± 7
[1], 293.15 K, x2 = 0.9916	–	78 ± 6
[1], 303.15 K, x2 = 0	–	380 ± 31
[1], 303.15 K, x2 = 0.212	–	304 ± 25
[1], 303.15 K, x2 = 0.4079	–	245 ± 20
[1], 303.15 K, x2 = 0.5925	–	190 ± 15
[1], 303.15 K, x2 = 0.766	–	149 ± 12
[1], 303.15 K, x2 = 0.8495	–	122 ± 10
[1], 303.15 K, x2 = 0.9282	–	98 ± 8
[1], 303.15 K, x2 = 0.9684	–	86 ± 7
[1], 303.15 K, x2 = 0.9916	–	79 ± 6
[1], 313.15 K, x2 = 0	–	386 ± 31
[1], 313.15 K, x2 = 0.212	–	309 ± 25
[1], 313.15 K, x2 = 0.4079	–	249 ± 20
[1], 313.15 K, x2 = 0.5925	–	193 ± 16
[1], 313.15 K, x2 = 0.766	–	152 ± 12
[1], 313.15 K, x2 = 0.8495	–	124 ± 10
[1], 313.15 K, x2 = 0.9282	–	100 ± 8
[1], 313.15 K, x2 = 0.9684	–	87 ± 7
[1], 313.15 K, x2 = 0.9916	–	79 ± 6
[1], 323.15 K, x2 = 0	–	392 ± 32
[1], 323.15 K, x2 = 0.212	–	314 ± 26
[1], 323.15 K, x2 = 0.4079	–	253 ± 21
[1], 323.15 K, x2 = 0.5925	–	197 ± 16
[1], 323.15 K, x2 = 0.766	–	154 ± 13
[1], 323.15 K, x2 = 0.8495	–	126 ± 10
[1], 323.15 K, x2 = 0.9282	–	101 ± 8
[1], 323.15 K, x2 = 0.9684	–	88 ± 7
[1], 323.15 K, x2 = 0.9916	–	79 ± 6
[1], 333.15 K, x2 = 0	–	397 ± 32
[1], 333.15 K, x2 = 0.212	–	319 ± 26
[1], 333.15 K, x2 = 0.4079	–	256 ± 21
[1], 333.15 K, x2 = 0.5925	–	201 ± 16
[1], 333.15 K, x2 = 0.766	–	157 ± 13
[1], 333.15 K, x2 = 0.8495	–	127 ± 10
[1], 333.15 K, x2 = 0.9282	–	102 ± 8
[1], 333.15 K, x2 = 0.9684	–	88 ± 7
[1], 333.15 K, x2 = 0.9916	–	80 ± 7
[1], 343.15 K, x2 = 0	–	403 ± 33
[1], 343.15 K, x2 = 0.212	–	324 ± 26
[1], 343.15 K, x2 = 0.4079	–	260 ± 21
[1], 343.15 K, x2 = 0.5925	–	204 ± 17
[1], 343.15 K, x2 = 0.766	–	158 ± 13
[1], 343.15 K, x2 = 0.8495	–	129 ± 10
[1], 343.15 K, x2 = 0.9282	–	103 ± 8
[1], 343.15 K, x2 = 0.9684	–	89 ± 7
[1], 343.15 K, x2 = 0.9916	–	80 ± 7
[2], 313.14 K, x2 = 0.2496	-0.109 ± 0.00454	–
[2], 313.14 K, x2 = 0.2497	-0.11 ± 0.00454	–
[2], 313.14 K, x2 = 0.4936	-0.183 ± 0.00741	–
[2], 313.14 K, x2 = 0.4951	-0.184 ± 0.00741	–
[2], 313.14 K, x2 = 0.7491	-0.231 ± 0.00932	–
[2], 313.14 K, x2 = 0.7495	-0.233 ± 0.00956	–
[2], 323.12 K, x2 = 0.2425	-0.116 ± 0.00478	–
[2], 323.12 K, x2 = 0.2486	-0.114 ± 0.00478	–
[2], 323.12 K, x2 = 0.4979	-0.189 ± 0.00765	–
[2], 323.12 K, x2 = 0.4991	-0.189 ± 0.00765	–
[2], 323.12 K, x2 = 0.7464	-0.221 ± 0.00908	–
[2], 323.12 K, x2 = 0.7481	-0.226 ± 0.00932	–
[2], 333.11 K, x2 = 0.2483	-0.119 ± 0.00478	–
[2], 333.11 K, x2 = 0.2496	-0.121 ± 0.00502	–
[2], 333.11 K, x2 = 0.496	-0.191 ± 0.00789	–
[2], 333.11 K, x2 = 0.4974	-0.189 ± 0.00765	–
[2], 333.11 K, x2 = 0.7476	-0.218 ± 0.00884	–
[2], 333.11 K, x2 = 0.7484	-0.218 ± 0.00884	–
[2], 348.12 K, x2 = 0.2492	-0.125 ± 0.00502	–
[2], 348.12 K, x2 = 0.2499	-0.125 ± 0.00502	–
[2], 348.12 K, x2 = 0.4948	-0.191 ± 0.00789	–
[2], 348.12 K, x2 = 0.498	-0.191 ± 0.00789	–
[2], 348.12 K, x2 = 0.7477	-0.199 ± 0.00813	–
[2], 348.12 K, x2 = 0.7483	-0.199 ± 0.00813	–
